These results are taken from patent US11932850B2, “Cancer chemoprevention with STAT3 blockers” (Jill M. Siegfried, LLC, priority 2018, dated 2024).

Read-outs that look alike come from different tables or passages of the source.

For data set [1], the system named is H1975 cells. The data set is described as follows: Soft agar colony forming assay, H1975. Format: cell-based, human. The source says:
1 hr after treatment with EGF.
Following the transfection protocol described above, cells transfected with either CS3D or CS3M were detached from the plate using Trypsin-EDTA (Life Technologies) and seeded at a density of 2×10^4 cells/well (in a 6-well plate) in soft agar to determine the ability of cells to grow in an anchorage-independent setting. Sea Plaque Agarose (Lonza—Rockland, Maine) was used to prepare 0.8% base agarose layer and a 0.48% upper agarose layer containing the transfected cells. 1 ml of appropriate growth media was added into each well and incubated at growth conditions of 37° C. with 5% CO2. Media was replaced every 3-4 days and colony formation was monitored. After 15-20 days, the media was aspirated, and wells were incubated with crystal violet in 10% formalin for 1 h. Using a dissecting scope, colonies were photographed in a 6-well plate (with 4 quadrants/well) using ImageJ software analysis to automatically count colonies, using 35 pixels as a cut-off.

Data set [2] deals with H1975 cells. The data set is described as follows: MTS cell viability assay, H1975. It counts as cell-based, human. The following applies: for IC50: MTS 72 hours. The method, then:
(§1) NSCLC cell lines (201T and H1975) were transfected with CS3D or CS3M (cyclic STAT3 mutant decoy) at concentrations ranging from 0 nM to 600 nM. Using MTS assays, cell viabilities were assessed 72 hours later. Three independent experiments were performed, using 24-well plates and 4 wells/concentration.
(§2) To determine the concentration of CS3D required to inhibit cell viability, increasing concentrations of CS3D was transfected, and after 72 hours, MTS assays were used to assess cell viability. Data were normalized to cells treated with lipofectamine alone.
(§3) Fluorescently-labeled CS3M and CS3D (with iFluor) were also produced using enzymatic ligation as described above and used to assess uptake efficiency. Transfections of the cyclic oligonucleotides were performed using Lipofectamine 2000 (Life Technologies) in opti-MEM media (Life Technologies) as follows: Cells were plated at […] confluency, and exposed to transfection media containing the respective circularized oligonucleotides for 24 hours at 37° C. Post-transfection, cell recovery was initiated in media containing 10% heat-inactivated fetal bovine serum.
(§4) Dose-response experiments assessing the relative number of metabolically active viable cells were performed by transfecting cells with increasing concentrations of CS3D or CS3M, followed by performance of MTS assays. After 72 hours, 5 mg/ml of MTS reagent was added in the plates and incubated 37° C. for 20 minutes. The plates were then read at 490 nm in a Synergy microplate reader (BioTek, Winooski, Vermont) using Gen5 2.05 software. Data obtained following treatment with C3SD or CS3M were normalized to treatment with lipofectamine alone. […] To assess induction of apoptosis in response to CS3D, H1975 and 201T cells were transfected with 100 nM of CS3M or CS3D. After twenty four hours of transfection, cells were resuspended in annexin V-binding buffer, incubated with 5 μL of propidium iodide (BD Biosciences) and subjected to flow cytometric analysis, using a BD FACS Canto II Flow Cytometer.
For orientation: Tetrazolium dyes change colour on reduction, which living cells bring about.

The subject of data set [3] is cleaved caspase-3 in H1975 xenografts. Nature of the data set: IHC of cleaved caspase-3 in H1975 xenografts at end of treatment. It counts as in vivo, nude mice. The following applies: after last day of treatment (day 14). An excerpt: For mRNA levels in tumor lysates, CS3D produced a 60-70% reduction of c-Myc gene expression relative to GAPDH compared to CS3M (FIG. 7E). […] Some cleaved caspase 3 staining was localized in nuclei, where caspase-3 is known to be active. Some caspase 3 staining was also evident in fibroblasts.
Immunohistochemical analysis: Tumors were excised for immunohistochemical (IHC) staining; 5-μm (micron) sections were cut from formalin-fixed paraffin-embedded tissue blocks, deparaffinized and rehydrated using successive washes of xylene followed by ethanol. Antigen retrieval was performed in a microwave oven (for 20 minutes) in an unmasking solution containing sodium citrate buffer followed by peroxidase blocking in 3% hydrogen peroxide. The sections were incubated in ABC blocking buffer (Vector laboratories Inc, Burlingame, California) for 1 hour at room temperature. Sections were then stained with H&E (hematoxylin and eosin) or subjected to sequential incubations with different primary antibodies and peroxidase-conjugated goat anti-rabbit secondary antibodies. […] Staining was graded as low (<30% positive cells per field, scored as 1), moderate (30-60% positive cells per field, scored as 2) or high (>60% positive cells per field, scored as 3).

Another data set has as its system NSCLC cell lines. Particulars: each NSCLC cell line, regardless of EGFR or KRAS mutation status; one 4-hr transfection. The method, then: as §1, §2
as §4, with “After twenty four hours of transfection, cells were resuspended in annexin V-binding buffer, incubated with 5 μL of propidium iodide (BD Biosciences) and subjected to flow cytometric analysis, using a BD FACS Canto II Flow Cytometer.” left out

Data set [4] has as its system NSCLC cells (H1975 and 201T). Nature of the data set: Annexin V/propidium iodide apoptosis by flow cytometry. It counts as cell-based, human. The method, then: Statistical significance was determined as *P<0.05, n=3.
Dose-response experiments assessing the relative number of metabolically active viable cells were performed by transfecting cells with increasing concentrations of CS3D or CS3M, followed by performance of MTS assays. After 72 hours, 5 mg/ml of MTS reagent was added in the plates and incubated 37° C. for 20 minutes. The plates were then read at 490 nm in a Synergy microplate reader (BioTek, Winooski, Vermont) using Gen5 2.05 software. Data obtained following treatment with C3SD or CS3M were normalized to treatment with lipofectamine alone. […] After twenty four hours of transfection, cells were resuspended in annexin V-binding buffer, incubated with 5 μL of propidium iodide (BD Biosciences) and subjected to flow cytometric analysis, using a BD FACS Canto II Flow Cytometer.
(A flow cytometer gives signals particle by particle.)

The next data set relates to 201T cells. The data set is described as follows: MTS cell viability assay, 201T. Format: cell-based, human. On the procedure: as §1, §2, §3, §4

Turning to “CS3D (DNA GATTTACGGGAAATGCSCATTTCCC; cyclic decoy with two hexaethylene glycol linkers, further chemistry not given here)”, in the data set with H1975 cells [1] (300 nM single transfection, at 15 days, H1975, compared to CS3M), the “disruption of anchorage-independent growth” value is given as 70%. Also, the “reduction of colony formation in soft agar” value in the data set on H1975 cells [1] (one transfection, H1975 (FIG. 4A)) came to 65%. Moreover, the inhibition in proliferation in the data set with H1975 cells [2] (0.3 μM transfection, H1975, relative to CS3M) amounted to 50%; in the data set on 201T cells (0.3 μM transfection, 201T, relative to CS3M) it was 50%. For the same substance, the IC50 in the data set with H1975 cells [2] (H1975 (mutant EGFR), read-out: IC50) was about 300 nM; in the data set on H1975 cells [2] (H1975, EGFR mutant (L858R/T790M), KRAS WT, read-out: CS3D IC50), 300 nM; in the data set with NSCLC cell lines, about 300 nM; in the data set with 201T cells (201T (WT EGFR), MTS 72 hours, read-out: IC50), about 300 nM; with 201T cells (201T, EGFR WT, KRAS WT, MTS at 72 hours after transfection, read-out: CS3D IC50) it was 300 nM. The “fields scoring high level of cleaved caspase-3” value in data set [3] turned out to be 83%. Moreover, the “increase in number of cells undergoing apoptosis” value in data set [4] (100 nM, 24 h, compared to CS3M) is given as 2 fold. Moreover, in data set [4] (201T and H1975, relative to CS3M), the “increase in the percent of apoptotic cells” value was 2 fold. Further, in data set [4] (one transfection, all 4 cell lines), the “increase in number of apoptotic cells” value is 2 fold.

Usually IC50 stands for the concentration needed to halve the response being measured.
